Experimental data taken from patent publication US9801949B2, “Combinations of albumin-based drug delivery systems” (KTB TUMORFORSCHUNGSGESELLSCHAFT MBH, priority 2012, dated 2017).
Marks after values point to notes of the source that are not given here. Numbered stars: 1 amine (or outer) side, 2 acyl side, 3 side chain; on linkers, the order of the positions; unused ones are H or OH. Square brackets hold non-standard residues; d marks the D form. Side chains are listed from the residue outwards. Peptide text beside a SMILES is read from it. * marks the point of attachment. DAMPA = CN(Cc1cnc2nc(N)nc(N)c2n1)c1ccc(C(=O)*)cc1; Hexanoyl(6-maleimido) = O=C1C=CC(=O)N1CCCCCC(=O)*; γGlu = O=C(O)[C@H](CCC(=O)[*:2])N[*:1]

Assays:
[1] = test system: MiaPaCa-2 pancreatic carcinoma xenograft; conditions: for toxic death: 7 mice per group, i.v. on days 10, 17, 24, dose per Table 1; for antitumor efficacy (in words): MiaPaCa-2 xenograft, up to end of experiment (day 43), doses as in Table 1; for Tumor volume (day 43): s.c. MiaPaCa-2 xenografts, i.v. on days 10, 17, 24, dose per Table 1, median initial tumor volume 0.062 cm^3
Protocol: In vivo efficacy studies in the MiaPaCa-2 xenograft model were carried out with doxorubicin, the 6-maleimidocaproyl(hydrazone) derivative of doxorubicin (DOXO-EMCH), the albumin-binding prodrug of methotrexate AW054, a combination of the 6-maleimidocaproyl(hydrazone) derivative of doxorubicin (DOXO-EMCH) and the albumin-binding prodrug of methotrexate AW054, doxorubicin, methotrexate and a combination of doxorubicin and methotrexate.
DOXO-EMCH was dissolved in sterile 10 mM sodium phosphate, 5% D-(+)-glucose (pH 5.8) and the respective dose administered intravenously within 30 minutes after dissolution. All doses of DOXO-EMCH and AW054 administered in the studies are stated in doxorubicin and methotrexate equivalents, respectively. Adrimedac® from medac, Germany, was used as the doxorubicin reference (c=2 mg/mL). Methotrexate (Sodium salt from medac) was used as a stock solution (12.5 mg methotrexate/mL in 5% D-Glucose from Braun, sterile). The stock solution AW054 for intravenous administration was 2.0 mg AW054/mL in 5% D-Glucose from Braun, sterile.
For in vivo testing in the MiaPaCa-2 xenograft model, female NMRI: nu/nu mice (Taconic, Denmark) were used. The mice were held in individually ventilaged cages (IVC) under sterile and standardized environmental conditions (25±2° C. room temperature, 50±10% relative humidity, 12 hour light-dark-rhythm). They received autoclaved food and bedding (ssniff, Soest, Germany) and acidified (pH 4.0) drinking water ad libitum. All animal experiments were performed under the auspices of the German Animal Protection Law.
MiaPaCa-2 cells (5×10^6 cells/mouse) were transplanted subcutaneously (s.c.) into the left flank region of each mouse on day zero. Mice were randomly distributed to the experimental groups (7 mice per group). Treatment was initiated at day 10 when the tumors were grown to a size of ˜60 mm^3. Mice were treated on a weekly schedule with 3×6 mg/kg doxorubicin (MTD), 2×125 mg/kg methotrexate (MTD), 3×24 mg/kg DOXO-EMCH (doxorubicin equivalents) (MTD), 3×20 mg/kg AW054 (methotrexate equivalents) (MTD), and a combination of 3×12 mg/kg DOXO-EMCH and 3×10 mg/kg AW054 or a combination of 3×3 mg/kg doxorubicin and 3×62.5 mg/kg methotrexate. All compounds were injected once a week for three weeks (days 10, 17, 24). The injection volume was 0.2 mU20 g body weight. Tumor size was measured twice weekly with a caliper-like instrument in two dimensions. Individual tumor volumes (V) were calculated by the formula V=(length×[width]^2)/2 and related to the values on the first day of treatment (relative tumor volume, RTV). The experiment was ended on day 43. Statistical analysis was performed with the U-test (Mann and Whitney) with p<0.05. The body weight of mice was determined every 3 to 4 days.
Combination therapy with doxorubicin and methotrexate was carried out at in a three weekly schedule (i.v.) at half of their maximum tolerated dose (MTD), i.e. 3×3 mg/kg for doxorubicin and 3×62.5 mg/kg methotrexate. Both DOXO-EMCH and AW054 were administered simultaneously (i.v.) in a three weekly schedule at half of their maximum tolerated dose (MTD), i.e. 3×12 mg/kg for DOXO-EMCH (doxorubicin equivalents) and 3×10 mg/kg (methotrexate equivalents) and at their respective MTDs, i.e. 3×24 mg/kg for DOXO-EMCH (doxorubicin equivalents) and 3×20 mg/kg for AW054 (methotrexate equivalents) (see the following Table 1).

[2] = test system: ovarian carcinoma xenograft model (OVCAR3); conditions: cited from earlier work
[3] = conjugate formed with cysteine-34 of albumin; cited from earlier work
[4] = test system: several xenograft and orthotopic tumor models; conditions: cited from earlier work

| Structure (SMILES) | toxic death [1] | antitumor efficacy (in words) [1] | Tumor volume (day 43) [1] | efficacy compared to methotrexate [2] | stability of albumin conjugate in human plasma [3] | efficacy compared to free doxorubicin [4] |
| --- | --- | --- | --- | --- | --- | --- |
| C[C@@H](NC(=O)CCCCCN1C(=O)C=CC1=O)C(=O)N[C@@H](Cc1ccccc1)C(=O)N[C@@H](CCCCN)C(=O)N[C@@H](CCCCNC(=O)CC[C@H](NC(=O)c1ccc(N(C)Cc2cnc3nc(N)nc(N)c3n2)cc1)C(=O)O)C(=O)O [AW054, EMC-D-Ala-Phe-Lys-Lys(γ-MTX)-OH] ({Hexanoyl(6-maleimido)}-[dA]FKK([γGlu-DAMPA])-OH) | 0 | only showed moderate antitumor effects | 0.264 ± 0.226* cm^3 | superior compared to methotrexate | stable in human plasma | – |
| COc1cccc2c1C(=O)c1c(O)c3c(c(O)c1C2=O)CC(O)(C(CO)=NNC(=O)CCCCCN1C(=O)C=CC1=O)CC3OC1CC(N)C(O)C(C)O1 (centres unmarked) [DOXO-EMCH, 6-maleimidocaproyl(hydrazone) derivative of doxorubicin] | – | partial remission | 0.034 ± 0.064* cm^3 | – | – | superior efficacy over free doxorubicin |
| COc1cccc2c1C(=O)c1c(O)c3c(c(O)c1C2=O)C[C@@](O)(C(=O)CO)C[C@@H]3O[C@H]1C[C@H](N)[C@H](O)[C@H](C)O1 [Doxorubicin, doxorubicin] | 0 | only showed moderate antitumor efficacy | 0.190 ± 0.125* cm^3 | – | – | – |
| CN(Cc1cnc2nc(N)nc(N)c2n1)c1ccc(C(=O)N[C@@H](CCC(=O)O)C(=O)O)cc1 [Methotrexate, methotrexate] | 0 | only showed moderate antitumor efficacy | 0.396 ± 0.307* cm^3 | – | – | – |
